Measurements reported in patent publication US20240158370A1, “CK1 alpha AND DUAL CK1 alpha / GSPT1 DEGRADING COMPOUNDS” (Innovo Therapeutics, Inc., priority 2022, published 2024).

Experiments:
CK1α = target: T1, CK1α (Homo sapiens, UniProt P48729+Q96SW2); test: HiBiT degradation assay, CK1α, Procedure A; format: cell-based
T1 construct: CSNK1A1-HiBit KI HEK293(LgBit) Cells; host or cells: HEK293(LgBit) knock-in cells
How it was run: (§1)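 Cells in DMEM + 10% FBS were treated with compound in a ten-point dose response from 10 μM to 0.005 μM (0.1% DMSO) for six hours at 37° C. Lysis with Nano-Glo HiBiT detection reagent followed, with luminescence read. DC50 and Ymin came from a 4-parameter fit.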

GSPT1 = GSPT1 (Homo sapiens, UniProt P15170+Q96SW2); test: HiBiT degradation assay, GSPT1, Procedure A; format: cell-based; design: HiBit-GSPT1 KI HEK293(LgBit) Cells; host or cells: HEK293(LgBit) knock-in cells
Chain of GSPT1 (P15170 whole entry): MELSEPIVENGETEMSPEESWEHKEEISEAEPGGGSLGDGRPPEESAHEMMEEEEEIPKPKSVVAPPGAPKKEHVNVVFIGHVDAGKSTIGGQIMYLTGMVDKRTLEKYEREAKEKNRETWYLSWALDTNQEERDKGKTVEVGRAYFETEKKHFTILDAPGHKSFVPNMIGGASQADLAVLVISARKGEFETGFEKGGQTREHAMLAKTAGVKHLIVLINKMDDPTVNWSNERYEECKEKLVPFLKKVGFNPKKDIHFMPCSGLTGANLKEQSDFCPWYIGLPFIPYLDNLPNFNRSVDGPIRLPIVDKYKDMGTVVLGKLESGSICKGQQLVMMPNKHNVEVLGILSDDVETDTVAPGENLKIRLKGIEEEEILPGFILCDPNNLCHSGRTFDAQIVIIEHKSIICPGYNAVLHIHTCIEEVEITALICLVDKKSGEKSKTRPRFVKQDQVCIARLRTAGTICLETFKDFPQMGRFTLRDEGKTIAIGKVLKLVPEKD
Chain of GSPT1 (Q96SW2 whole entry): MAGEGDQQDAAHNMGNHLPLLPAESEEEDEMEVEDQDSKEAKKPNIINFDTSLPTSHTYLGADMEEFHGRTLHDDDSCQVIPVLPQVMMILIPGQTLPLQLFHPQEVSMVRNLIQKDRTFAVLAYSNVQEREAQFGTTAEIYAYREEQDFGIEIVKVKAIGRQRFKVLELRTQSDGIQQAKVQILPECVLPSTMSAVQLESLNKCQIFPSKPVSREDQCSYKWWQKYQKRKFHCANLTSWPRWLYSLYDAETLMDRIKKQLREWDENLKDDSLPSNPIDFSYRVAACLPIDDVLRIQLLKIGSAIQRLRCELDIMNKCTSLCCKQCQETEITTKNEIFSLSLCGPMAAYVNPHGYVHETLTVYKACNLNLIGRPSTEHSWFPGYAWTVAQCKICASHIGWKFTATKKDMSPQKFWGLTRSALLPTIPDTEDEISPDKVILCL
Chain of GSPT1 (Q16531 whole entry partner): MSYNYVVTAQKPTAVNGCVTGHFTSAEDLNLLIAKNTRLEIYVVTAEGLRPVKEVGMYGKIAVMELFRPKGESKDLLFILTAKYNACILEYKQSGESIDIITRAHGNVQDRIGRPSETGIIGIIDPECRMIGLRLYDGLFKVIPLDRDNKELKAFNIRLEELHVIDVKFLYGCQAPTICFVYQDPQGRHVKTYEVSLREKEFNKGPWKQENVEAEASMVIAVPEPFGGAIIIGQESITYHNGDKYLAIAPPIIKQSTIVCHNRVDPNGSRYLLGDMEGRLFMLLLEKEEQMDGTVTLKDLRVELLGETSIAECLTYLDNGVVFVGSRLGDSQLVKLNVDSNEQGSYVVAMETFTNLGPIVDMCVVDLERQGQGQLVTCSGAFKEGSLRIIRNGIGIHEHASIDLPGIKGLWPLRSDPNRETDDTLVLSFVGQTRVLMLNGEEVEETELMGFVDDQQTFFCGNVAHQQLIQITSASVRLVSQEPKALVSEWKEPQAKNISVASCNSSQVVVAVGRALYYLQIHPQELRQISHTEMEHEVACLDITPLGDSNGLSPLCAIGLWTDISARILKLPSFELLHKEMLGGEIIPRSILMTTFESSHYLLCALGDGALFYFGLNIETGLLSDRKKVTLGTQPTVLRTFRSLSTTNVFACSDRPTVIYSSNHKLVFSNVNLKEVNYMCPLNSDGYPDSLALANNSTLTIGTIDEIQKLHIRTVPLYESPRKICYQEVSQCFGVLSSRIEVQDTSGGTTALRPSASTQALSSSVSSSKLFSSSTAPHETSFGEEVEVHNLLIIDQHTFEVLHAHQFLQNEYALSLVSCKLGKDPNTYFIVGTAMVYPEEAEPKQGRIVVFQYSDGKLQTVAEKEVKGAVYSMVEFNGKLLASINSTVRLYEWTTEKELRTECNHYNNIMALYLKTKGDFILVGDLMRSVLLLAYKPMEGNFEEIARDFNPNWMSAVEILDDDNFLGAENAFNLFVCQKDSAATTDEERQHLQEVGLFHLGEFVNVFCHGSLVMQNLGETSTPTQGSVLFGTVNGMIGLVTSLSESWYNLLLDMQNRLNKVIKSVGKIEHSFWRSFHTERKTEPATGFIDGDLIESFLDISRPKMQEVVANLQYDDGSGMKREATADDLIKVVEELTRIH
How it was run: as §1

T1 sequence (P48729 whole entry): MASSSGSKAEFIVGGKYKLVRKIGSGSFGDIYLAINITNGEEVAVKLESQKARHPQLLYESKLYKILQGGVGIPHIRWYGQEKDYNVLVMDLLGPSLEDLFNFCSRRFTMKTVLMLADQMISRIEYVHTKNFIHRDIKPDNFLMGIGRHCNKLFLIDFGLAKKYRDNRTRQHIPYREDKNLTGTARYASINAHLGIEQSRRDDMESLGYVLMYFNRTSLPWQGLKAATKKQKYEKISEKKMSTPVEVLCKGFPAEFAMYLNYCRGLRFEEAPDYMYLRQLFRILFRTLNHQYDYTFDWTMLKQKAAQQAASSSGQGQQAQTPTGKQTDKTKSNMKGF
T1 sequence (Q96SW2 whole entry): as the sequence (Q96SW2 whole entry) above
T1 sequence (Q16531 whole entry partner): as the sequence (Q16531 whole entry partner) above

| SMILES | CK1α Ymin (CK1α; six hours incubation) | DC50 (CK1α; six hours incubation) [nM] | DC50 (GSPT1; six hours incubation) [nM] | GSPT1 Ymin (GSPT1; six hours incubation) | CK1α Ymin (CK1α; six hours) | DC50 (CK1α; six hours) [nM] | DC50 (GSPT1; six hours) [nM] | GSPT1 Ymin (GSPT1; six hours) |
| --- | --- | --- | --- | --- | --- | --- | --- | --- |
| Cc1ccc(-c2c(-c3ccc4c(c3)CN(C3CCC(=O)NC3=O)C4=O)cnn2C)o1 (stereo not shown) [Example 365] | D (D = >10- 25% remaining) | ≥ 25 | ≥ 25 | F (F = >75-100% remaining) | – | – | – | – |
| Cn1cc(-c2c(-c3ccc4c(c3)CN(C3CCC(=O)NC3=O)C4=O)cnn2C)cn1 (stereo not shown) [Example 366] | C (C = 0-10% remaining) | < 25 | ≥ 25 | F (F = >75-100% remaining) | – | – | – | – |
| Cc1ccc(-c2c(-c3ccc4c(c3)CN(C3CCC(=O)NC3=O)C4=O)cnn2C)cn1 (stereo not shown) [Example 367] | C (C = 0-10% remaining) | < 25 | < 25 | F (F = >75-100% remaining) | – | – | – | – |
| Cc1cc(-c2c(-c3ccc4c(c3)CN(C3CCC(=O)NC3=O)C4=O)cnn2C)ccn1 (stereo not shown) [Example 368] | E (E = >25-75% remaining) | < 25 | < 25 | F (F = >75-100% remaining) | – | – | – | – |
| Cc1cncc(-c2c(-c3ccc4c(c3)CN(C3CCC(=O)NC3=O)C4=O)cnn2C)c1 (stereo not shown) [Example 369] | F (F = >75-100% remaining) | ≥ 25 | ≥ 25 | F (F = >75-100% remaining) | – | – | – | – |
| Cn1ncc(-c2ccc3c(c2)CN(C2CCC(=O)NC2=O)C3=O)c1-c1ccc(N)nc1 (stereo not shown) [Example 370] | E (E = >25-75% remaining) | ≥ 25 | ≥ 25 | – | – | – | – | – |
| Cn1ncc(-c2ccc3c(c2)CN(C2CCC(=O)NC2=O)C3=O)c1-c1cncc(N)c1 (stereo not shown) [Example 371] | D (D = >10- 25% remaining) | ≥ 25 | ≥ 25 | F (F = >75-100% remaining) | – | – | – | – |
| Cc1c(-c2c(-c3ccc4c(c3)CN(C3CCC(=O)NC3=O)C4=O)cnn2C)cnn1C (stereo not shown) [Example 372] | E (E = >25-75% remaining) | ≥ 25 | ≥ 25 | F (F = >75-100% remaining) | – | – | – | – |
| Cc1nn(C)cc1-c1c(-c2ccc3c(c2)CN(C2CCC(=O)NC2=O)C3=O)cnn1C (stereo not shown) [Example 373] | E (E = >25-75% remaining) | ≥ 25 | ≥ 25 | F (F = >75-100% remaining) | – | – | – | – |
| CN1N=CC(c2ccc3c(c2)CN(C2CCC(=O)NC2=O)C3=O)C1c1cnc(C#N)nc1 (stereo not shown) [Example 374] | F (F = >75-100% remaining) | ≥ 25 | ≥ 25 | F (F = >75-100% remaining) | – | – | – | – |
| Cn1cc(-c2c(-c3ccc4c(c3)CN(C3CCC(=O)NC3=O)C4=O)cnn2C)cc1C#N (stereo not shown) [Example 375] | D (D = >10- 25% remaining) | < 25 | ≥ 25 | F (F = >75-100% remaining) | – | – | – | – |
| CN1N=CC(c2ccc3c(c2)CN(C2CCC(=O)NC2=O)C3=O)C1c1cnn(C2CC2)c1 (stereo not shown) [Example 376] | D (D = >10- 25% remaining) | < 25 | ≥ 25 | F (F = >75-100% remaining) | – | – | – | – |
| COc1ncccc1-c1c(-c2ccc3c(c2)CN(C2CCC(=O)NC2=O)C3=O)cnn1C (stereo not shown) [Example 377] | E (E = >25-75% remaining) | < 25 | ≥ 25 | F (F = >75-100% remaining) | – | – | – | – |
| COc1ccc(-c2c(-c3ccc4c(c3)CN(C3CCC(=O)NC3=O)C4=O)cnn2C)cn1 (stereo not shown) [Example 378] | – | – | – | – | E (E = >25-75% remaining) | < 25 | ≥ 25 | F (F = >75-100% remaining) |

Results, then the compound that gave them:

| CK1α Ymin (CK1α; six hours incubation) | DC50 (CK1α; six hours incubation) [nM] | DC50 (GSPT1; six hours incubation) [nM] | GSPT1 Ymin (GSPT1; six hours incubation) | CK1α Ymin (CK1α; six hours) | DC50 (CK1α; six hours) [nM] | DC50 (GSPT1; six hours) [nM] | GSPT1 Ymin (GSPT1; six hours) | SMILES |
| --- | --- | --- | --- | --- | --- | --- | --- | --- |
| – | – | – | – | E (E = >25-75% remaining) | < 25 | ≥ 25 | F (F = >75-100% remaining) | Cn1ncc(-c2ccc3c(c2)CN(C2CCC(=O)NC2=O)C3=O)c1-c1cc2ccccc2[nH]1 (stereo not shown) [Example 380] |
| – | – | – | – | D (D = >10- 25% remaining) | < 25 | ≥ 25 | F (F = >75-100% remaining) | Cn1ncc(-c2ccc3c(c2)CN(C2CCC(=O)NC2=O)C3=O)c1-c1ccc2occc2c1 (stereo not shown) [Example 381] |
| – | – | – | – | D (D = >10- 25% remaining) | ≥ 25 | ≥ 25 | F (F = >75-100% remaining) | Cn1ncc(-c2ccc3c(c2)CN(C2CCC(=O)NC2=O)C3=O)c1-c1ccc2nccn2c1 (stereo not shown) [Example 382] |
| – | – | – | – | E (E = >25-75% remaining) | < 25 | ≥ 25 | F (F = >75-100% remaining) | Cn1ncc(-c2ccc3c(c2)CN(C2CCC(=O)NC2=O)C3=O)c1-c1cnn2ccccc12 (stereo not shown) [Example 383] |
| – | – | – | – | E (E = >25-75% remaining) | ≥ 25 | < 25 | F (F = >75-100% remaining) | CC(C)Cn1cc(-c2c(-c3ccc4c(c3)CN(C3CCC(=O)NC3=O)C4=O)cnn2C)cn1 (stereo not shown) [Example 384] |
| – | – | – | – | E (E = >25-75% remaining) | < 25 | ≥ 25 | F (F = >75-100% remaining) | Cn1ncc(-c2ccc3c(c2)CN(C2CCC(=O)NC2=O)C3=O)c1-c1ccc2cccnc2c1 (stereo not shown) [Example 385] |
| – | – | – | – | E (E = >25-75% remaining) | < 25 | ≥ 25 | F (F = >75-100% remaining) | Cn1ncc(-c2ccc3c(c2)CN(C2CCC(=O)NC2=O)C3=O)c1-c1ccc2ccn(C)c2c1 (stereo not shown) [Example 386] |
| – | – | – | – | D (D = >10- 25% remaining) | < 25 | ≥ 25 | F (F = >75-100% remaining) | Cn1ncc(-c2ccc3c(c2)CN(C2CCC(=O)NC2=O)C3=O)c1-c1ccc2c(ccn2C)c1 (stereo not shown) [Example 387] |
| – | – | – | – | E (E = >25-75% remaining) | ≥ 25 | ≥ 25 | F (F = >75-100% remaining) | Cn1ncc(-c2ccc3c(c2)CN(C2CCC(=O)NC2=O)C3=O)c1-c1cnn(CC(F)F)c1 (stereo not shown) [Example 388] |
| – | – | – | – | E (E = >25-75% remaining) | < 25 | ≥ 25 | F (F = >75-100% remaining) | Cn1ncc(-c2ccc3c(c2)CN(C2CCC(=O)NC2=O)C3=O)c1-c1ccc2cnn(C)c2c1 (stereo not shown) [Example 389] |
| – | – | – | – | F (F = >75-100% remaining) | < 25 | ≥ 25 | F (F = >75-100% remaining) | Cn1ncc(-c2ccc3c(c2)CN(C2CCC(=O)NC2=O)C3=O)c1-c1cnc2c(ccn2C)c1 (stereo not shown) [Example 390] |
| – | – | – | – | C (C = 0-10% remaining) | ≥ 25 | ≥ 25 | F (F = >75-100% remaining) | Cc1nc2ccc(-c3c(-c4ccc5c(c4)CN(C4CCC(=O)NC4=O)C5=O)cnn3C)cc2[nH]1 (stereo not shown) [Example 391] |
| – | – | – | – | E (E = >25-75% remaining) | < 25 | ≥ 25 | F (F = >75-100% remaining) | Cn1ncc(-c2ccc3c(c2)CN(C2CCC(=O)NC2=O)C3=O)c1-c1ccc2scnc2c1 (stereo not shown) [Example 392] |
| – | – | – | – | D (D = >10- 25% remaining) | < 25 | ≥ 25 | F (F = >75-100% remaining) | Cn1ncc(-c2ccc3c(c2)CN(C2CCC(=O)NC2=O)C3=O)c1-c1ccc2ncsc2c1 (stereo not shown) [Example 393] |
| – | – | – | – | E (E = >25-75% remaining) | ≥ 25 | ≥ 25 | F (F = >75-100% remaining) | Cn1ncc(-c2ccc3c(c2)CN(C2CCC(=O)NC2=O)C3=O)c1-c1cnc2sccc2c1 (stereo not shown) [Example 394] |
